Measured values taken from patent publication US8022075B2, “Diagnostic and remedy for disease caused by amyloid aggregation and/or deposition” (Fujifilm Ri Pharma Co., Ltd., priority 2005, dated 2011).

Legend:
[1] = biological target: Whole protein of human Alzheimer lesion origin (temporal cortex) (Homo sapiens, UniProt P05067); assay: Calculation of binding affinity by use of Alzheimer brain; settings: Alzheimer brain homogenate
Procedure: Whole protein of human Alzheimer lesion origin (temporal cortex), a commercial product of Biochain (US), was employed.
An Alzheimer brain homogenate diluted with PBS was added to each test tube, to thereby initiate reaction.
4.00 (GraphPad Software, Inc.), to thereby calculate binding parameters (Kd, Bmax).

[2] = In vitro metabolism rate by use of liver microsomes, mouse; assay type: in vitro ADME, Male CD1 mouse
Procedure: (§1) Liver microsomes (Pooled human Liver Microsomes, Male CD1 mouse, Male Wistar Rat), which is a commercial product of In Vitro Technologies, were employed.
(§2) Each of compound 23, compound 24, and [^125I]-IMPY was dissolved in Milli Q water, to thereby adjust the concentration to 11 μCi/mL (5 nmol/L).
(§3) To a mixture of 100 mM glucose 6-phosphate and […] NADPH solution, an equal volume of […] magnesium chloride was added. Glucose 6-phosphate dehydrogenase was employed at a final concentration of 10 unit/mL. These components were reconstituted upon use.
(§4) Method: To each of the glass test tubes, […] EDTA/0.33M potassium phosphate buffer (150 μL), Milli Q water (200 μL), 0.005 or 0.5 mg protein/mL microsome suspension (50 μL), and a test substance solution (50 μL) were added. The mixture was preliminarily incubated at 37° C. for two minutes. The above-prepared NADPH-generating system (50 μL) was added, to thereby initiate reaction. At an arbitrary point of time, an equal volume of acetonitrile was added, to thereby terminate the reaction. The reaction mixture (50 μL) was sampled into a glass tube for determining the metabolism amount, and saturated ascorbic acid ethanol solution (25 μL) was added thereto. The sample was developed by means of a reverse phase TLC (Whatman KC18F) with 80% methanol. The TLC was brought into contact with an imaging plate, and radioactivity was detected by means of BAS-1800 (product of Fuji Film Co., Ltd.). The metabolism rate was calculated through analysis by means of GraphPad Prism Ver. 4.00 (GraphPad Software, Inc.).

[3] = biological target: T1, amyloid β (1-40) aggregates formed in PBS and in MES (Homo sapiens, UniProt P05067); assay: Correlation of β sheet amount in aggregates to binding amount of compound 23; settings: mixtures of PBS aggregates and MES aggregates (FIG. 4)
T1 construct: amyloid β (1-40) peptide hydrochloric acid salt; host or cells: chemically synthesised peptide
Description: In order to confirm that binding of compound 23 is promoted in accordance with the β-sheet structure amount, binding amount was compared among amyloid β aggregates having different β-sheet contents.
It has already reported by Wood et al. that amyloid β (1-40) aggregated in an acidic medium assumes large aggregates having a small β-sheet structure content, and that the structure is unchanged even in a neutral pH medium (Wood S. J., J. Mol. Biol. 256(5): 870-877). According to this report, synthetic amyloid β (1-40) aggregates were prepared in PBS in a manner similar to that of Test Example 2, and such aggregates were also prepared in MES (2-morpholinoethansulfonate) buffer in a similar manner.
These samples were further diluted with PBS to 40 μmol/L. Also a PBS aggregates sample and a MES aggregates sample were diluted with PBS to 40 μmol/L respectively.
The β-sheet content of aggregate mixture samples was determined through the thioflavin T method.
The binding amount of compound 23 to an aggregate mixture (aggregates formed in PBS and those formed in MES) was determined in a manner similar to that of Test Example 5 (binding to amyloid).

[4] = Distribution in rat body (radioactivity in the brain); assay type: in vivo, Wistar male rats; settings: caudal vein
Procedure: Wistar male rats (purchased from Japan SLC, Inc.) were conditioned for seven days, maintaining water and chow (commercial solid chow: F-2, product of Funabashi Farm) ad libitum, and the non-fasting rats were employed in the experiment (8-week-old at experiment).
Each of compound 23, compound 24, and [^125I]-IMPY was dissolved in a solution containing 40 mM ascorbic acid and 0.1% Tween80, to thereby adjust the concentration to 100 μCi/200 μL. Each sample was administered to each rat through the caudal vein under non-anesthetization. […] The brain was cut into the left and right parts, and each part was weighed. The right brain was placed in a vial, and radioactivity was measured by means of a gamma counter. The radioactivity relative to the administration amount was calculated. Specifically, radioactivity of the tissue and that divided by the tissue weight were calculated as % I.D. and % I.D./g-tissue weight, respectively.

[5] = In vitro metabolism rate by use of liver microsomes, rat; assay type: in vitro ADME, Male Wistar Rat
Procedure: as §1, §2, §3, §4

[6] = In vitro metabolism rate by use of liver microsomes, human; assay type: in vitro ADME
Procedure: as §1, §2, §3, §4

[7] = Analysis of radioactive substance in the rat brain after administration (TLC); assay type: in vivo; settings: rat brain homogenate 2 to 120 minutes after administration (FIG. 5)
Procedure: Compounds which had been incorporated into the rat brain were investigated. The left part of the rat brain, obtained in the above experiment (distribution in the rat body) was homogenized by means of a Potter-type homogenizer with 40-mmol/L ascorbic acid-containing PBS (4-fold amount by mass). Acetonitrile (4-fold volume with respect to homogenate) was added to the homogenate, and the mixture was filtered, to thereby remove protein. The acetonitrile layer was developed by means of a reverse phase TLC (Whatman KC18F). The TLC was brought into contact with an imaging plate, and radioactivity was detected by means of BAS-1800 (product of Fuji Film Co., Ltd.). Each of the brain homogenate obtained 2, 5, 40, 60, and 120 minutes after administration was treated with acetonitrile so as to remove protein, and extracted radioactive substances were analyzed through thin-layer chromatography (KC18F, Whatman).

T1 sequence (P05067 672-711 limits assumed): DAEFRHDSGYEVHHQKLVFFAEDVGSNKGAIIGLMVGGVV
Chain of Whole protein of human Alzheimer lesion origin (temporal cortex) (P05067 672-713): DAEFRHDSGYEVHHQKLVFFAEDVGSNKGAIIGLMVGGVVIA

Question: Which Bmax [1] does the source give for `[125I]c1ccc2nc(-c3ccc(-c4cnco4)cc3)cn2c1` [Example 23, [^125I]5-[4-(6-Iodoimidazo[1,2-a]pyridin-2-yl)phenyl]-1,3-oxazole] here?
Answer: 1.66 pmol/mg protein

Question: What about the “Rate of metabolism by liver microsomes” value [2] of the same compound?
Answer: 0.480 ± 0.139 pmol/min/mg protein

Question: And the “Specific binding amount against β-sheet content of aggregate mixture” value [3]?
Answer: promoted in accordance with an increase in β-sheet content

Question: What about the “Radioactivity in the rat brain Mean ± SD” value ([4]; 2 min after administration) of the same compound?
Answer: 1.268 ± 0.166 % I.D./g

Question: What about the “Radioactivity in the rat brain Mean ± SD” value ([4]; 5 min after administration) of the same compound?
Answer: 1.124 ± 0.032 % I.D./g

Question: And the “Radioactivity in the rat brain Mean ± SD” value ([4]; 15 min after administration)?
Answer: 0.584 ± 0.077 % I.D./g

Question: What about the “Radioactivity in the rat brain Mean ± SD” value ([4]; 30 min after administration) of the same compound?
Answer: 0.273 ± 0.015 % I.D./g

Question: What about the “Radioactivity in the rat brain Mean ± SD” value ([4]; 60 min after administration) of the same compound?
Answer: 0.139 ± 0.006 % I.D./g

Question: What about the “Radioactivity in the rat brain Mean ± SD” value ([4]; 120 min after administration) of the same compound?
Answer: 0.083 ± 0.002 % I.D./g

Question: And the “Rate of metabolism by liver microsomes” value [5]?
Answer: 0.632 ± 0.420 pmol/min/mg protein

Question: And the “Rate of metabolism by liver microsomes” value [6]?
Answer: 0.944 ± 0.265 pmol/min/mg protein

Question: What does the source list for `CN(C)c1ccc(-c2cn3cc([125I])ccc3n2)cc1` [^125I-IMPY, reference compound]?
Answer: Rate of metabolism by liver microsomes [2]: 0.911 ± 0.331 pmol/min/mg protein; Radioactivity in the rat brain Mean ± SD ([4]; 2 min after administration): 1.110 ± 0.027 % I.D./g; Radioactivity in the rat brain Mean ± SD ([4]; 5 min after administration): 0.713 ± 0.098 % I.D./g; Radioactivity in the rat brain Mean ± SD ([4]; 15 min after administration): 0.337 ± 0.019 % I.D./g; Radioactivity in the rat brain Mean ± SD ([4]; 30 min after administration): 0.144 ± 0.021 % I.D./g; Radioactivity in the rat brain Mean ± SD ([4]; 60 min after administration): 0.065 ± 0.002 % I.D./g; Radioactivity in the rat brain Mean ± SD ([4]; 120 min after administration): 0.027 ± 0.001 % I.D./g; Rate of metabolism by liver microsomes [5]: 2.164 ± 0.647 pmol/min/mg protein; Rate of metabolism by liver microsomes [6]: 0.510 ± 0.137 pmol/min/mg protein; Metabolites in the brain (TLC of extracted radioactive substance) [7]: provided a plurality of metabolites in the brain
